From ChEMBL document CHEMBL1146406, “Inhibition of Bacterial RNA Polymerases. Peptide Metabolites from the Cultures of Streptomyces sp” (J Nat Prod, 1997)
Active and inactive are the calls of the source. The calls are words filed in the database; no cut-off is given here. Numbered stars: 1 amine (or outer) side, 2 acyl side, 3 side chain; on linkers, the order of the positions; unused ones are H or OH. Bridge positions count the residues as written; N and C are the ends. Square brackets hold non-standard residues; d marks the D form. Peptide text beside a SMILES is read from it. * marks the point of attachment. X2 = C[C@H](Oc1ccc([C@H](N[*:1])C(=O)[*:2])cc1)[C@@]1(/C=C/C(=O)[*:3])CO1; X1 = CC(C)[C@H](O)[C@H](C)C(=O)*; aIle = CC[C@@H](C)[C@H](N)C(=O)O; dNMeF = CN[C@H](Cc1ccccc1)C(=O)O; aThr = C[C@H](O)[C@H](N)C(=O)O

What was measured:
[1] = tested on: Escherichia coli; test: (§1) Inhibition of Escherichia coli RNA polymerase by high throughput filtration assay
[2] = tested on: Staphylococcus aureus; test: (§2) Inhibition of Staphylococcus aureus RNA polymerase by high throughput filtration assay
[3] = as §1
[4] = as §2
[5] = organism: Homo sapiens; test: Inhibition of human RNA polymerase

Compound	Activity [1]	Activity [2]	IC50 [3]	IC50 [4]	Activity [5]
CC[C@@H](C)[C@@H]1NC(=O)[C@@H](CC(C)C)NC(=O)[C@H](CC(C)C)NC(=O)[C@H](Cc2c[nH]c3ccccc23)NC(=O)CNC(=O)[C@H](CC(N)=O)NC1=O (cyclo(GWL[dL][aIle]N))	inactive	inactive	–	–	–
CC[C@@H](C)[C@@H]1NC(=O)[C@H](NC(=O)[C@@H](C)[C@@H](O)C(C)C)[C@H](C)OC(=O)[C@H]2COC(=O)CNC(=O)/C=C/[C@@]3(CO3)[C@H](C)Oc3ccc(cc3)[C@H](NC1=O)C(=O)N(C)[C@H](Cc1ccccc1)C(=O)N[C@@H]([C@H](C)O)C(=O)N2 [SALINAMIDE A] (X1-[dT][aIle][X2][dNMeF][aThr][dS]; ester 1-C; linker 3-6 via G)	–	–	0.5 µM	0.5 µM	inactive
